The supplement of paper PMC13380429

Legend:
Settings in all cases: 72 h
[1] = test system: Calu-3; experiment: drug sensitivity score (DSS) for viability; higher = more toxic; extreme values may be limits of the assay
[2] = test system: Vero E6; experiment: as above
[3] = test system: U2OS; experiment: as above
[4] = test system: Caco-2; experiment: as above
[5] = test system: HepG2; experiment: as above
[6] = test system: Calu-3; experiment: cell viability relative to DMSO; higher = less toxic
[7] = test system: Vero E6; experiment: as above
[8] = test system: U2OS; experiment: as above
[9] = test system: Caco-2; experiment: as above
[10] = test system: HepG2; experiment: as above
[11] = test system: Calu-3; experiment: relative viability EC50 (midpoint between 100% and the lowest measured viability); higher = less toxic
[12] = test system: Vero E6; experiment: as above
[13] = test system: U2OS; experiment: as above
[14] = test system: Caco-2; experiment: as above
[15] = test system: HepG2; experiment: as above

SMILES	drug sensitivity score [1]	drug sensitivity score [2]	drug sensitivity score [3]	drug sensitivity score [4]	drug sensitivity score [5]	cell viability ([6]; 1 nM)	cell viability ([6]; 10 nM)	cell viability ([6]; 100 nM)	cell viability ([6]; 1000 nM)	cell viability ([6]; 10000 nM)	cell viability ([7]; 1 nM)	cell viability ([7]; 10 nM)	cell viability ([7]; 100 nM)	cell viability ([7]; 1000 nM)	cell viability ([7]; 10000 nM)	cell viability ([8]; 1 nM)	cell viability ([8]; 10 nM)	cell viability ([8]; 100 nM)	cell viability ([8]; 1000 nM)	cell viability ([8]; 10000 nM)	cell viability ([9]; 1 nM)	cell viability ([9]; 10 nM)	cell viability ([9]; 100 nM)	cell viability ([9]; 1000 nM)	cell viability ([9]; 10000 nM)	cell viability ([10]; 1 nM)	cell viability ([10]; 10 nM)	cell viability ([10]; 100 nM)	cell viability ([10]; 1000 nM)	cell viability ([10]; 10000 nM)	relative viability EC50 [11]	relative viability EC50 [12]	relative viability EC50 [13]	relative viability EC50 [14]	relative viability EC50 [15]
CCC(=O)OCN1C(=O)C=CC1=O [MIRA-1]	0	0	0	0	0	90.6%	108%	104%	101%	98.9%	95.8%	91.8%	99.8%	92%	107%	99.3%	99.4%	102%	102%	105%	90.6%	97.5%	87.8%	94.7%	112%	104%	95.9%	106%	106%	103%	> 10 µM	> 10 µM	> 10 µM	> 10 µM	> 10 µM
CCCCCCCCCCCCCCCC[n+]1ccn(Cc2ccccc2)c1C [NH125]	7	8	10.7	10.5	13.6	99.2%	99.1%	89.7%	82.1%	23.3%	104%	106%	99.5%	85.2%	0.3%	105%	93.7%	95.9%	57.1%	0.1%	100%	92.4%	97%	59.9%	0.8%	96.3%	106%	97.2%	32.6%	0%	1.64 µM	1.99 µM	1.16 µM	1.2 µM	0.682 µM
N#CC(c1ccnc(OCc2ccc(CN3CCOCC3)cc2)n1)c1nc2ccccc2s1 (stereo not given) [PGL5001]	0	0	0	0.3	1.5	112%	104%	107%	98.5%	102%	99.8%	98.3%	93.1%	101%	98.8%	102%	97.5%	98.7%	103%	92%	103%	86%	98.4%	97%	83.5%	98.4%	102%	104%	89.6%	80.9%	> 10 µM	> 10 µM	> 10 µM	> 10 µM	> 10 µM
CCCCCCCCCCCCc1ccc(S(=O)(=O)Nc2nncs2)cc1 [PHT-427]	0	0	0	0	0	96.4%	94.9%	95.6%	99.6%	99%	106%	108%	102%	97.8%	104%	102%	97.5%	98.2%	98.7%	99.9%	95.2%	95.3%	101%	98.1%	97.4%	93.6%	106%	88.1%	102%	92.6%	> 10 µM	> 10 µM	> 10 µM	> 10 µM	> 10 µM
N[C@@H](CC(=O)N1CCn2c(nnc2C(F)(F)F)C1)Cc1n[nH]c2c(F)c(F)ccc12 [PK-44]	0	0	0	0	0	95.3%	96.6%	95.8%	100%	100%	102%	103%	104%	98.4%	100%	102%	100%	99.4%	104%	99.7%	87.8%	96.3%	102%	105%	92.4%	102%	92%	114%	91.5%	91%	> 10 µM	> 10 µM	> 10 µM	> 10 µM	> 10 µM
O=[N+]([O-])c1cc(Cl)ccc1S(=O)(=O)N1CCN(Cc2ccccc2)CC1 [RN-1747]	0	0	0	0	0	96.4%	104%	94.6%	102%	106%	99.5%	92.2%	93.4%	96.1%	102%	94.6%	100%	96.2%	102%	106%	94.3%	94%	96.2%	106%	99.9%	105%	92.9%	104%	86.9%	104%	> 10 µM	> 10 µM	> 10 µM	> 10 µM	> 10 µM
NC(=O)c1[nH]cnc1O [SM-108]	0	0	0	0	0	96.2%	89%	101%	107%	99.8%	102%	108%	99.7%	103%	100%	100%	95.7%	104%	96.6%	104%	91.2%	101%	102%	104%	97.9%	95%	93.9%	95.8%	102%	98.7%	> 10 µM	> 10 µM	> 10 µM	> 10 µM	> 10 µM
